One may read the IC50 as the concentration that inhibits the measured activity by half. A high value points to weaker potency in that assay.

One assay concerns DU-145. As to the kind of experiment: Effect of HTPB on DU-145 Cell viability; high degree of sensitivity, Range 0.5-1. Particulars: Homo sapiens. Format: functional, cell-based.
`O=C(CCCc1ccccc1)Nc1ccc(C(=O)NO)cc1`: the IC50 was found to be 1 µM.

The next assay deals with Histone deacetylase. As to the kind of experiment: Inhibition of histone deacetylase (HDAC) activity in DU-145 nuclear extracts. It is filed as protein assay, Homo sapiens.
Conditions: not given
The compound `Nc1ccccc1NC(=O)c1ccc(CNC(=O)Cc2ccccc2)cc1` yielded an IC50 of 5.2 µM.

In turn, `O=C(CCCc1ccccc1)Nc1ccc(C(=O)NO)cc1` showed an IC50 of 0.044 µM.

`O=C(CCCc1ccccc1)NCc1ccc(C(=O)NO)cc1`: the IC50 was determined as 1.2 µM.

`O=C(CCc1ccc(NC(=O)Cc2ccccc2)cc1)NO` yielded an IC50 of 0.67 µM.

In turn, `O=C(Cc1ccccc1)NCc1ccc(C(=O)NO)cc1` returned an IC50 of 2.5 µM.

`O=C(Cc1ccccc1)Nc1ccc(C(=O)NO)cc1` showed an IC50 of 0.11 µM.

The compound `CCCC(=O)NCc1ccc(C(=O)NO)cc1` displayed an IC50 of 3.6 µM.

`CCCC(=O)NCc1ccc(C(=O)Nc2ccccc2N)cc1` yielded an IC50 of 6 µM.

Compound `CCCC(=O)Nc1ccc(C(=O)NO)cc1` showed an IC50 of 1.5 µM.

Compound `CCCC(=O)Nc1ccc(CCC(=O)NO)cc1` showed an IC50 of 1.6 µM.

In turn, `CCCC(CCC)C(=O)Nc1ccc(CC(=O)Nc2ccccc2N)cc1` came in with a half-inhibitory concentration (IC50) of 80 µM.

`O=C(CCc1ccc(NC(=O)CCCc2ccccc2)cc1)NO` displayed an IC50 of 0.53 µM.

As to `Nc1ccccc1NC(=O)c1ccc(CNC(=O)CCCc2ccccc2)cc1`, the IC50 is 4.3 µM.

Take `CCCC(CCC)C(=O)Nc1ccc(CCC(=O)NO)cc1`: the IC50 was found to be 5 µM.

The next assay addresses Histone deacetylase. As to the kind of experiment: Inhibitory concentration against histone deacetylase (HDAC); Value ranges from 10-20 uM.
Conditions: not given
It is filed as protein assay.
For the compound `CCCC(CCC)C(=O)Nc1ccc(/C=C/C(=O)Nc2ccccc2N)cc1`, the IC50 was below 20 µM.

The compound `CCCC(CCC)C(=O)Nc1ccc(/C=C/C(=O)NO)cc1` had an IC50 below 20 µM.

`CCCC(CCC)C(=O)Nc1ccc(C(=O)Nc2ccccc2N)cc1` showed an IC50 below 20 µM.

The next assay has as its target Histone deacetylase. The experiment in a line: Inhibitory concentration against histone deacetylase (HDAC); Value ranges from 5-8 uM. Format: protein assay.
Conditions: not given
Take `CCCC(CCC)C(=O)NCc1ccc(C(=O)NO)cc1`: the IC50 is below 8 µM.

Compound `CCCC(CCC)C(=O)NCc1ccc(C(=O)Nc2ccccc2N)cc1` came in with an IC50 below 8 µM.

`CCCC(CCC)C(=O)Nc1ccc(C(=O)NO)cc1` registered an IC50 below 8 µM.

For another assay, the target named is Histone deacetylase. As to the kind of experiment: Inhibitory concentration against histone deacetylase (HDAC); Value ranges from 5-80 uM. Format: protein assay.
Conditions: not given
`CCCC(CCC)C(=O)Nc1ccc(CCC(=O)Nc2ccccc2N)cc1` had an IC50 below 80 µM.

The compound `CCCC(CCC)C(=O)Nc1ccc(CC(=O)NO)cc1` gave an IC50 below 80 µM.

Values taken from ChEMBL document CHEMBL1138834, “Zn2+-chelating motif-tethered short-chain fatty acids as a novel class of histone deacetylase inhibitors” (J Med Chem, 2004).
